“And” between values parts separate entries of the source, which are not always exact repeats. Equal entries are not always repeated.
What was measured:
[1] = system: AT3-OVA mammary tumors; experiment: AT3-OVA tumor growth in Lck-Cre;Ptpn2fl/fl mice; assay type: in vivo, mouse; design: key to Tumour growth: tumour size in mm^2 (two-dimensional caliper measurement); settings: for Tumour growth: AT3-OVA tumours, individual mice (Figure 7A)
Protocol: (§1) Male or female mice were injected subcutaneously with 5 × 10^5 MC38 tumor cells resuspended in 100 μl D-PBS into the flank. Alternatively, female mice were injected orthotopically with 5 × 10^5 AT3 or AT3-OVA or PTPN2-deleted AT3 or AT3-OVA tumor cells resuspended in 20 μl D-PBS into the fourth mammary fat pad. Tumor sizes were measured in two dimensions (mm^2) using electronic callipers two to three times per week as soon as tumors were palpable (20–25 mm^2).

[2] = system: MC38 colon tumors; experiment: Tumor-infiltrating lymphocytes in MC38 tumors; assay type: in vivo, mouse; design: CD4 EM, individual mice / CD8 EM, individual mice / GRZMB, individual mice / B cells, individual mice / NK cells, individual mice / Tregs, individual mice / MDSCs, individual mice: unit not given here
Protocol: (§2) Tumor-bearing mice were sacrificed and tumors were excised and digested at 37 °C for 30 min using a cocktail of 1 mg/ml collagenase type IV (Worthington Biochemicals) and 0.02 mg/ml DNase I (Sigma-Aldrich) in DMEM supplemented with 2% (v/v) FBS. Cells were passed through a 70 μm cell strainer (BD Biosciences) twice and processed for flow cytometry. For assessing T cell activation, cells were surface stained with fluorophore-conjugated antibodies to CD62L, CD44, PD-1, and TIM-3. For the assessment of NK cells, B cells, myeloid-derived suppressor cells (MDSCs), dendritic cells (DCs), and tumor-associated macrophages, cells were surface stained with fluorophore-conjugated antibodies to NK1.1, TCRβ, CD19, CD11b, CD11c, F4/80, Ly6C and Ly6G. For the detection of intracellular cytokines TNF and IFNγ, T cells were stimulated with PMA (20 ng/ml; Sigma-Aldrich) and ionomycin (1 μg/ml; Sigma-Aldrich) in the presence of GolgiPlug™ and GolgiStop™ (BD Biosciences) for 4 h at 37 °C in complete T cell medium. For the intracellular detection of granzyme B, cells were processed untreated without the addition of BD GolgiPlug™ and BD GolgiStop™.

[3] = Serum cytokines (BD Cytokine Bead Array) in AT3-OVA tumor-bearing mice; assay type: in vivo, mouse
Protocol: Single-cell suspensions from spleens and lymph nodes were obtained as described previously. For the detection of intracellular cytokines and granzyme B, T cells were fixed and permeabilized with the BD Cytofix/Cytoperm kit according to the manufacturer’s instructions. Briefly, T cells were first surface stained with fluorophore-conjugated antibodies and then fixed followed by permeabilization on ice for 20 min. Fixed and permeabilized cells were stained for IFN-γ, TNF, and granzyme B for 45 min at room temperature. For the detection of intracellular FoxP3 the Foxp3/Transcription Factor Staining Buffer Set (eBioscience) was used according to the manufacturer’s instructions. Briefly, cells were fixed and permeabilized for 1 h on ice followed by intracellular staining at room temperature for 45 min. For the detection of serum cytokines, the BD CBA Mouse Inflammation Kit™ was used according to the manufacturers’ instructions.

[4] = system: AT3-OVA mammary tumors; experiment: AT3-OVA tumor growth in Rag1-/- mice; assay type: in vivo, mouse; design: key to Tumour growth: tumour size in mm^2 (two-dimensional caliper measurement); Tumour weights: unit not given here; settings: for Tumour size RAG1, mean: in mm2
Protocol: as §1

[5] = Morbidity and overt toxicity in treated tumor-bearing mice
Protocol: Control animals received an injection at the same time of 200 μl of saline. Stock solutions were stored at −80 °C and thawed before each administration.

[6] = system: AT3-OVA mammary tumors; experiment: Tumor-infiltrating lymphocytes in AT3-OVA tumors of Lck-Cre;Ptpn2fl/fl mice; assay type: in vivo, mouse; design: NK cells / Tregs / MDSCs / CD4 EM / CD8 EM / B cells / IFNg TNF / GRZMB: unit not given here
Protocol: as §2

[7] = MC38 tumours, Figure 4B, listed as CMP-182
[8] = MC38 tumours, Figure 4C, listed as CMP-182
[9] = Figure 10A, serum, individual mice, listed as CMP-182, in pg/mL (unit assumed)
[10] = Lck-Cre;Ptpn2fl/fl mice, individual mice (Figure 7D), listed as CMP-182
[11] = tumour-infiltrating cells, Lck-Cre;Ptpn2fl/fl mice n=6, individual mice (Figure 7C), listed as CMP-182

CC(C)(O)CCOc1ccc2cc(O)c(N3CC(=O)NS3(=O)=O)c(F)c2c1 [Compound 182, 5-(1-Fluoro-3-hydroxy-7-(3-hydroxy-3-methylbutoxy)naphthalen-2-yl)−1,2,5-thiadiazolidin-3-one 1,1-dioxide]
growth of AT3-OVA tumors in Lck-Cre;Ptpn2fl/fl mice ([1]; 10 mg/kg i.v., effects modest): additionally repressed the growth | Tumour growth ([1]; Lck-Cre;Ptpn2fl/fl mice n=6, day 7 post injection, listed as CMP-182): 39.6 and 38.4 and 28.91 and 24.91 and 14.4 and 25 | Tumour growth ([1]; Lck-Cre;Ptpn2fl/fl mice n=6, day 9 post injection, listed as CMP-182): 40.2 and 33 and 27.36 and 24.44 and 20.64 and 28.6 | Tumour growth ([1]; Lck-Cre;Ptpn2fl/fl mice n=6, day 11 post injection, listed as CMP-182): 40.8 and 26.46 and 22.5 and 19.89 and 25.38 and 17.64 | Tumour growth ([1]; Lck-Cre;Ptpn2fl/fl mice n=6, day 13 post injection, listed as CMP-182): 44.8 and 30.25 and 16 and 20.25 and 29.64 and 25.38 | Tumour growth ([1]; Lck-Cre;Ptpn2fl/fl mice n=6, day 16 post injection, listed as CMP-182): 44.16 and 40.92 and 16 and 18.9 and 20.68 and 31.11 | Tumour growth ([1]; Lck-Cre;Ptpn2fl/fl mice n=6, day 19 post injection, listed as CMP-182): 38.94 and 25 and 15.2 and 25.92 and 33.48 and 38.34 | Tumour growth ([1]; Lck-Cre;Ptpn2fl/fl mice n=6, day 22 post injection, listed as CMP-182): 38.94 and 28.08 and 25.08 and 22.36 and 21 and 35 | Tumour weights ([1]; Lck-Cre;Ptpn2fl/fl mice n=6, individual mice (Figure 7B), listed as CMP-182, in mg (unit assumed)): 123 and 76 and 120 and 82 and 67 and 156 | TILs in MC38 tumors ([2]; 10 mg/kg i.v.): increased TILs | CD4 EM, individual mice [2, 7]: 7887.52 and 30840.7 and 10292.6 and 20601 and 9909.06 | CD8 EM, individual mice [2, 7]: 15044.4 and 39708.3 and 17222.4 and 39521.3 and 13554.1 | GRZMB, individual mice [2, 7]: 88.5 and 78.2 and 82.1 and 82.7 and 77.1 | PD-1 TIM-3, individual mice [2, 7]: 71 and 72.3 and 61.5 and 79.9 and 67.1 | B cells, individual mice [2, 8]: 1614.8 and 2825.59 and 875.433 and 4615.54 and 1539.85 | MDSCs, individual mice [2, 8]: 35014.8 and 125819 and 42394.5 and 66581.6 and 40317.8 | NK cells, individual mice [2, 8]: 12195.1 and 31635.4 and 14041.5 and 15109.2 and 9658.51 | Tregs, individual mice [2, 8]: 1910.56 and 8524.67 and 3417.74 and 9313.01 and 2270.7 | serum levels of pro-inflammatory cytokines IL-6, IFNγ and TNF ([3]; 10 mg/kg i.v.): not significantly increased | Serum IFNg 2nd cohort, median ([3]; Figure 10A, median, n=8): 10.56, n=8 | Serum IL-6 2nd cohort, median ([3]; Figure 10A, median, n=8): 8.881, n=8 | Serum TNF 2nd cohort, median ([3]; Figure 10A, median, n=8): 15.88, n=8 | IFN g [3, 9]: 8.688 and 8.172 and 5.3329 and 65.9781 and 16.5587 and 24.0426 and 12.4297 and 4.946 | IL-6 [3, 9]: 14.2361 and 23.6555 and 10.1071 and 7.655 and 5.591 and 5.72 and 7.01 and 68.8168 | TNF [3, 9]: 7.107 and 11.4953 and 23.094 and 50.0533 and 23.4075 and 14.0031 and 17.7649 and 12.4357 | AT3-OVA mammary tumor growth in Rag1-/- mice ([4]; 10 mg/kg i.v., mice lack T and B cells): no effect | Tumour growth ([4]; Figure 6E, RAG1 mice, n=6, individual animals, day 9 post injection, listed as CMP-182): 7.7488 and 14.8962 and 11.224 and 3.9597 and 9.447 and 12.6224 | Tumour growth ([4]; Figure 6E, RAG1 mice, n=6, individual animals, day 11 post injection, listed as CMP-182): 19.6245 and 35.0523 and 26.8632 and 16.6934 and 15.0024 and 31.8592 | Tumour growth ([4]; Figure 6E, RAG1 mice, n=6, individual animals, day 14 post injection, listed as CMP-182): 31.9081 and 32.6823 and 36.7674 and 25.1923 and 36.3137 and 48.8592 | Tumour growth ([4]; Figure 6E, RAG1 mice, n=6, individual animals, day 16 post injection, listed as CMP-182): 59.5752 and 89.2808 and 73.4616 and 57.4821 and 68.9011 and 83.2686 | Tumour growth ([4]; Figure 6E, RAG1 mice, n=6, individual animals, day 18 post injection, listed as CMP-182): 74.7088 and 110.046 and 88.7004 and 79.0656 and 57.8454 and 92.4255 | Tumour growth ([4]; Figure 6E, RAG1 mice, n=6, individual animals, day 21 post injection, listed as CMP-182): 75.82 and 124.872 and 109.74 and 89.0525 and 89.04 and 103.68 | Tumour growth ([4]; Figure 6E, RAG1 mice, n=6, individual animals, day 23 post injection, listed as CMP-182): 84.728 and 134.64 (3×) and 89.0525 and 133.35 | Tumour growth ([4]; Figure 6E, RAG1 mice, n=6, individual animals, day 25 post injection, listed as CMP-182): 88 and 156.6 and 126.72 and 89.0525 and 186.66 and 168.74 | Tumour weights ([4]; Figure 6E, RAG1 mice, n=6, individual animals, listed as CMP-182): 270 and 560 and 890 and 220 and 490 and 330 | TUMOR WEIGHTS RAG1, median ([4]; RAG1 mice, column B (Data Set-B), n=6, Figure 6E): 410.0, n=6 | Tumour size RAG1, mean over all time points (column mean) ([4]; RAG1 mice, n=6, Figure 6E, mean of 8 time points): 72.3 mm2 | Tumour size RAG1, mean ([4]; RAG1 mice, n=6, time point 9, Figure 6E): 9.983 | Tumour size RAG1, mean ([4]; RAG1 mice, n=6, time point 11, Figure 6E): 24.18 | Tumour size RAG1, mean ([4]; RAG1 mice, n=6, time point 14, Figure 6E): 35.29 | Tumour size RAG1, mean ([4]; RAG1 mice, n=6, time point 16, Figure 6E): 71.99 | Tumour size RAG1, mean ([4]; RAG1 mice, n=6, time point 18, Figure 6E): 83.8 | Tumour size RAG1, mean ([4]; RAG1 mice, n=6, time point 21, Figure 6E): 98.7 | Tumour size RAG1, mean ([4]; RAG1 mice, n=6, time point 23, Figure 6E): 118.5 | Tumour size RAG1, mean ([4]; RAG1 mice, n=6, time point 25, Figure 6E): 136 | morbidity or systemic inflammation ([5]; AT3-OVA tumor-bearing mice, 10 mg/kg i.v.): not accompanied by overt signs of morbidity or systemic inflammation | overt toxicities ([5]; dosing every two days): did not result in any overt toxicities | IFNγ+TNF+ infiltrating CD8+ T cells in Lck-Cre;Ptpn2fl/fl mice ([6]; 10 mg/kg i.v.): significantly increased | GRZMB [6, 10]: 75.7 and 29.8 and 80.2 and 60 and 76.3 and 38.3 | IFNg TNF [6, 10]: 26.1 and 36.3 and 38 and 37.5 and 35.3 and 36.7 | TILs in AT3-OVA tumors of Lck-Cre;Ptpn2fl/fl mice ([6]; compared with untreated Lck-Cre;Ptpn2fl/fl mice): not accompanied by any significant changes | B cells [6, 11]: 170392 and 46995.6 and 105275 and 126695 and 155871 and 80840.6 | CD4 EM [6, 11]: 52213.7 and 43853.2 and 131869 and 64047.3 and 133510 and 49758.5 | CD8 EM [6, 11]: 137803 and 79204.9 and 701666 and 167038 and 463610 and 106200 | MDSCs [6, 11]: 220000 and 235417 and 32287.6 and 56721.3 and 90563.2 and 25765.3 | NK cells [6, 11]: 58097.7 and 15907.7 and 22173.4 and 86915 and 66469.7 and 20906.1 | Tregs [6, 11]: 31347.8 and 26539.2 and 15097.8 and 25883.4 and 26206.9 and 21641.1

Reference: paper PMC10374545, “A small molecule inhibitor of PTP1B and PTPN2 enhances T cell anti-tumor immunity” (Nature Communications, 2023)
